Laboratory results published in the supplement of paper PMC10307832.

What was measured:
Experiment in all cases: relative viability (nuclei count vs DMSO), 5 days (fraction); higher = more cells survive
Linsitinib + Navitoclax = compound: C[C@]1(O)C[C@@H](c2nc(-c3ccc4ccc(-c5ccccc5)nc4c3)c3c(N)nccn32)C1 [Linsitinib] + CC1(C)CCC(c2ccc(Cl)cc2)=C(CN2CCN(c3ccc(C(=O)NS(=O)(=O)c4ccc(N[C@H](CCN5CCOCC5)CSc5ccccc5)c(S(=O)(=O)C(F)(F)F)c4)cc3)CC2)C1 [Navitoclax] (partner 0.5 µM)
Procedure, shortened: (§1)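 Lung cancer cell lines in 1536-well plates were dosed by pin tool the day after seeding, either with one drug alone or with a fixed anchor-drug dose plus five library-drug doses (not always all listed) in √10 steps. After 5 days, cells were fixed and their nuclei stained in one step (final 0.05% Triton X-100, 1% formaldehyde, 1 ug/ml Hoechst), then counted on 4× images. Relative viability is the nuclei count in treated wells divided by that in vehicle wells. Values are medians of duplicate plates.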

Linsitinib + Decitabine = compound: C[C@]1(O)C[C@@H](c2nc(-c3ccc4ccc(-c5ccccc5)nc4c3)c3c(N)nccn32)C1 [Linsitinib] + Nc1ncn([C@H]2C[C@H](O)[C@@H](CO)O2)c(=O)n1 [Decitabine] (partner 2 µM)
Procedure, shortened: as §1

Ispinesib + Trametinib = compound: Cc1ccc(C(=O)N(CCCN)[C@@H](c2nc3cc(Cl)ccc3c(=O)n2Cc2ccccc2)C(C)C)cc1 [Ispinesib] + CC(=O)Nc1cccc(-n2c(=O)n(C3CC3)c(=O)c3c(Nc4ccc(I)cc4F)n(C)c(=O)c(C)c32)c1 [Trametinib] (partner 0.02 µM)
Procedure, shortened: as §1

Ispinesib + Decitabine = compound: Cc1ccc(C(=O)N(CCCN)[C@@H](c2nc3cc(Cl)ccc3c(=O)n2Cc2ccccc2)C(C)C)cc1 [Ispinesib] + Nc1ncn([C@H]2C[C@H](O)[C@@H](CO)O2)c(=O)n1 [Decitabine] (partner 2 µM)
Procedure, shortened: as §1

Cell Line	relative viability (Linsitinib + Navitoclax; first compound 0.01 µM)	relative viability (Linsitinib + Navitoclax; first compound 0.03162 µM)	relative viability (Linsitinib + Navitoclax; first compound 0.1 µM)	relative viability (Linsitinib + Navitoclax; first compound 1 µM)	relative viability (Linsitinib + Decitabine; first compound 0.01 µM)	relative viability (Linsitinib + Decitabine; first compound 0.03162 µM)	relative viability (Linsitinib + Decitabine; first compound 0.1 µM)	relative viability (Linsitinib + Decitabine; first compound 1 µM)	relative viability (Ispinesib + Trametinib; first compound 0.001 µM)	relative viability (Ispinesib + Trametinib; first compound 0.003162 µM)	relative viability (Ispinesib + Trametinib; first compound 0.01 µM)	relative viability (Ispinesib + Trametinib; first compound 0.03162 µM)	relative viability (Ispinesib + Trametinib; first compound 0.1 µM)	relative viability (Ispinesib + Decitabine; first compound 0.001 µM)	relative viability (Ispinesib + Decitabine; first compound 0.003162 µM)	relative viability (Ispinesib + Decitabine; first compound 0.01 µM)	relative viability (Ispinesib + Decitabine; first compound 0.03162 µM)	relative viability (Ispinesib + Decitabine; first compound 0.1 µM)	relative viability (Linsitinib + Navitoclax; first compound 0.3162 µM)	relative viability (Linsitinib + Decitabine; first compound 0.3162 µM)
EPLC-272H	1.12	1.29	1.41	1.2	0.316	0.375	0.389	0.344	0.302	0.277	0.306	0.225	0.206	0.395	0.355	0.377	0.322	0.25	–	–
NCI-H2009	1.15	1.24	1.22	1.2	0.36	0.4	0.366	0.396	0.28	0.271	0.287	0.203	0.151	0.447	0.365	0.383	0.366	0.244	1.01	0.359
NCI-H520	1.15	0.685	1.1	0.893	0.456	0.59	0.501	0.555	0.775	0.663	0.557	0.229	0.221	0.54	0.469	0.33	0.226	0.227	–	–
NCI-H2405	0.906	0.72	0.954	0.846	0.709	0.813	0.713	0.588	0.708	0.632	0.525	0.566	0.478	0.754	0.741	0.845	0.831	0.695	0.716	0.686
LCLC-97TM1	0.39	0.396	0.552	0.484	0.251	0.261	0.24	0.245	0.219	0.238	0.219	0.169	0.137	0.248	0.24	0.303	0.235	0.19	0.264	0.204
NCI-H727	0.406	0.539	0.376	0.184	0.671	1.05	0.752	0.63	0.376	0.39	–	0.382	0.419	0.651	0.864	–	0.737	0.761	0.19	0.58
LK-2	0.875	0.829	0.759	0.531	0.221	0.407	0.232	0.185	0.742	0.819	0.801	0.751	0.516	0.253	0.419	0.36	0.216	0.153	0.575	0.187
PC-3 [JPC-3]	0.842	0.798	0.785	0.669	0.822	0.902	0.91	0.814	0.717	0.83	0.689	0.664	0.375	0.838	0.867	0.781	0.796	0.465	0.731	0.77
